In PMC9855432, “Novel Set of Diarylmethanes to Target Colorectal Cancer: Synthesis, In Vitro and In Silico Studies” (Biomolecules, 2022):

Columns and labels:
human CRC HT-29 cells [1] = assay: MTT cell viability / IC50 on HT-29 cells; type: cell-based; settings: for IC50: MTT assay, 1 to 50 µM, mean ± SEM of at least three experiments; for viability at 50 µM: HT-29; for viability at 50 µM / Cell viability (%) HT-29: MTT screening, 50 µM
Method: (§1) Cells were grown in DMEM medium for HT-29 cells and RPMI 1640 medium for HCT116 cells, supplemented with 10% FBS, 1% L-glutamine and 100 U/mL penicillin and 100 μg/mL streptomycin. Cultures were maintained in a humidified atmosphere containing 5% CO2 at 37 °C. Stock solutions of each compound were used at 10^−2 M in DMSO and then diluted in culture medium to obtain the appropriate final concentrations. […] L929 cell line is a non-cancer cell line derived from L-strain (L cells) and has been grown in the Peptinov laboratory for years. L929 cells are murine adherent fibroblasts from subcutaneous connective tissue (areolar and adipose tissues). Cells were grown in DMEM medium supplemented with 10% FBS, 1% L-glutamine and 100 U/mL penicillin and 100 µg/mL streptomycin and maintained in a humidified incubator at 37 °C, 5% CO2. When confluence is at 80%, cells are trypsinyzed for 3 min and diluted in fresh medium. Each batch of cells is kept for 15 passages before being discarded and a new batch thawed.
(§2) All compounds were tested on the metabolic activity of the cells using the MTT colorimetric assay. Briefly, cells were seeded in 96-well microplates at 8 × 10^3 cells/well for human CRC HT-29 cells and 5 × 10^3 cells/well for human CRC HCT116 cells and grown for 24 h in appropriate culture medium prior to exposure or not to compounds (6–27) with concentration ranges from 1 to 50 µM. After 48 h of treatment, MTT (5 g/L in Phosphate-buffered saline (PBS)) was added and incubated for another 3 h. The MTT was then removed from the wells and 100 µL/well of DMSO were added to dissolve formazan. The optical density was detected with a microplate reader (Thermoscientific, Multiskan FC) at 550 nm and cell viability was expressed as a percentage of each treatment condition compared to control cells. IC50 values were calculated for all compounds from the dose–response curve.

human CRC HCT116 cells = assay: MTT cell viability / IC50 on HCT116 cells; type: cell-based; settings: for IC50: MTT assay, 1 to 50 µM, mean ± SEM of at least three experiments; for viability at 50 µM: HCT-116
Method: as §1, §2

human CRC HT-29 cells [2] = assay: DNA fragmentation, Cell Death Detection ELISA, HT-29; type: cell-based; settings: treated at IC50, n-fold compared to control
Method: Human CRC HT-29 and HCT116 cells were treated or not with the determined IC50 values of compounds (12a, 10a, 10b) for 24 and 48 h and then harvested with trypsin. Histone release from the nucleus during apoptosis was analyzed using the Cell Death Detection ELISA^PLUS as previously described. Cytosol extracts from 10^5 cells of each condition were obtained and DNA fragmentation was measured according to the manufacturer’s protocol. Results were reported as n-fold compared to control cells.

PARP = assay: Western blot of cleaved PARP in HT-29 cells; type: cell-based, human
Method: Human CRC HT-29 and HCT116 cells were treated or not with the determined IC50 values of compounds (12a, 10a, 10b) for indicated times (6, 12, 24 and 48h) and then harvested with trypsin. For total protein extraction, collected samples of each condition were washed with PBS. Then, the total cell pool was centrifuged at 200× g for 5 min at 4 °C and homogenized in RIPA lysis buffer (50 mM HEPES, pH 7.5, 150 mM NaCl, 1% sodium deoxycholate, 1% NP-40, 0.1% Sodium Dodecyl Sulfate (SDS), […] of aprotinin) containing protease inhibitors according to the manufacturer’s instructions as previously described. Proteins (60 µg) were separated on 12.5% SDS-PAGE gels and transferred to polyvinylidene difluoride (PVDF) membranes. Membranes were probed with respective human antibodies against caspase-3, cleaved caspase-3, PARP and Akt, ERK, p38 MAP Kinases and its phosphorylated forms according to the manufacturer’s instructions. After incubation with appropriate secondary antibodies, blots were developed using the «Immobilon Western » substrate following the manufacturer’s protocol and G:BOX system (Syngene, Ozyme). Membranes were then reblotted with human anti-β-actin used as a loading control.
Cells were treated or not for 24 and 48 h, with IC50 values of compounds 10a, 10b and 12a, for human CRC HT-29 cells and compounds 10a and 12a for human CRC HCT116 cells. Total lysates were collected, and expression of apoptosis-related proteins was determined by Western blot analysis.

[3] = Homo sapiens, 50 µM, 48 h, MTT screening
[4] = concentrations up to 50 µM, 48 h

| IC50 (human CRC HT-29 cells [1]; 48 h) | IC50 (human CRC HCT116 cells; Homo sapiens, HCT-116, 48 h) | IC50 (human CRC HCT116 cells; 48 h) | IC50 (human CRC HT-29 cells [1]; Homo sapiens, HT-29, 48 h) | SMILES | further results |
| --- | --- | --- | --- | --- | --- |
| > 50 µM | < 35 µM | 26.1 ± 2.08 µM |  | COc1ccc(C(=Cc2ccc(Br)cc2)c2ccccn2)cc1 [Compound 13b, 2-(2-(4-bromophenyl)-1-(4-methoxyphenyl)vinyl)pyridine] | viability at 50 µM (human CRC HCT116 cells; [3]): < 50% |
| > 50 µM |  | > 50 µM |  | COc1ccc(C(=Cc2ccc(C(F)(F)F)cc2)c2ccccn2)cc1 [Compound 12b, 2-(1-(4-methoxyphenyl)-2-(4-(trifluoromethyl)phenyl)vinyl)pyridine] |  |
|  | > 50 µM |  | 43.43 ± 0.31 µM | COc1ccc(C(=Cc2ccc(F)cc2)c2ccccn2)cc1 [Compound 15a, 2-(2-(4-fluorophenyl)-1-(4-methoxyphenyl)vinyl)pyridine] | viability at 50 µM (human CRC HT-29 cells [1]; Homo sapiens, 48 h): < 50% |
|  | 41.5 ± 1.48 µM |  | 37.9 ± 1.87 µM | COc1ccc(C(Oc2ccc(Br)cc2)c2ccccn2)cc1 (centres unmarked) [Compound 22, 2-((4-bromophenoxy)(4-methoxyphenyl)methyl)pyridine] | viability at 50 µM (human CRC HT-29 cells [1]; Homo sapiens, 48 h): < 50%; antiproliferative activity HT-29 (in words) (human CRC HT-29 cells [1]; [4]): potential antiproliferative activity; viability at 50 µM (human CRC HCT116 cells; [3]): < 50%; antiproliferative activity HCT116 (in words) (human CRC HCT116 cells; [4]): potential antiproliferative activity |
| > 50 µM |  | > 50 µM |  | COc1ccc(C(=Cc2ccc(C(C)C)cc2)c2ccccn2)cc1 [Compound 9a, 2-(2-(4-isopropylphenyl)-1-(4-methoxyphenyl)vinyl)pyridine] |  |
|  | > 50 µM |  | > 50 µM | COc1ccc(C(Oc2ccc([N+](=O)[O-])cc2)c2ccccn2)cc1 (centres unmarked) [Compound 25, 2-((4-methoxyphenyl)(4-nitrophenoxy)methyl)pyridine] |  |
|  | > 50 µM |  | > 50 µM | COc1ccc(C(Oc2ccc(Cl)cc2)c2ccccn2)cc1 (centres unmarked) [Compound 21, 2-((4-chlorophenoxy)(4-methoxyphenyl)methyl)pyridine] |  |
| 25.2 ± 1.28 µM |  | > 50 µM |  | COc1ccc(C(=Cc2ccc(C(C)(C)C)cc2)c2ccccn2)cc1 [Compound 10b, 2-(2-(4-(tert-butyl)phenyl)-1-(4-methoxyphenyl)vinyl)pyridine] | Cell viability (%) HT-29 (human CRC HT-29 cells [1]; 48 h): < 50%; HT-29 DNA Fragmentation (Fold) (human CRC HT-29 cells [2]; 24 h): 1.24 Fold; HT-29 DNA Fragmentation (Fold) (human CRC HT-29 cells [2]; 48 h): 0.84 Fold; cleaved PARP expression (PARP; HT-29, treated at IC50, 24 h): never been expressed; cleaved PARP expression (PARP; HT-29, treated at IC50, 48 h): never been expressed |
|  | > 50 µM |  | > 50 µM | COc1ccc(C(Oc2ccc(F)cc2)c2ccccn2)cc1 (centres unmarked) [Compound 23, 2-((4-fluorophenoxy)(4-methoxyphenyl)methyl)pyridine] |  |
|  | 35.6 ± 2.08 µM |  | 30.3 ± 1.78 µM | COc1ccc(C(=Cc2ccccc2)c2ccccn2)cc1 [Compound 6a, 2-(1-(4-méthoxyphenyl) -2-phenylvinyl) pyridine] | viability at 50 µM (human CRC HT-29 cells [1]; Homo sapiens, 48 h): < 50%; viability at 50 µM (human CRC HCT116 cells; [3]): < 50% |
|  | > 50 µM |  | 34.9 ± 0.78 µM | COc1ccc(C(=Cc2ccc(C(C)C)cc2)c2ccccn2)cc1 [Compound 9b, 2-(2-(4-isopropylphenyl)-1-(4-methoxyphenyl)vinyl)pyridine] | viability at 50 µM (human CRC HT-29 cells [1]; Homo sapiens, 48 h): < 50% |
|  | > 50 µM |  | 43.5 ± 4.91 µM | COc1ccc(C=C(c2ccc(OC)cc2)c2ccccn2)cc1 [Compound 8a, 2-(1,2-bis(4-methoxyphenyl)vinyl)pyridine] | viability at 50 µM (human CRC HT-29 cells [1]; Homo sapiens, 48 h): < 50% |
|  | > 50 µM |  | > 50 µM | COc1ccc(C(Oc2ccc(N(C)C)cc2)c2ccccn2)cc1 (centres unmarked) [Compound 26, 4-((4-methoxyphenyl)(pyridin-2-yl)methoxy)-N,N-dimethylaniline] |  |
| > 50 µM |  | > 50 µM |  | COc1ccc(C(=Cc2ccccc2)c2ccccn2)cc1 [Compound 6b, 2-(1-(4-méthoxyphenyl) -2-phenylvinyl) pyridine] |  |
| 24 ± 2.65 µM |  | 36.6 ± 2.94 µM |  | COc1ccc(C(=Cc2ccc(Br)cc2)c2ccccn2)cc1 [Compound 13a, 2-(2-(4-bromophenyl)-1-(4-methoxyphenyl)vinyl)pyridine] | viability at 50 µM (human CRC HT-29 cells [1]; Homo sapiens, 48 h): < 50%; Cell viability (%) HCT116 (human CRC HCT116 cells; 50 µM, 48 h, MTT screening): < 50% |
|  | > 50 µM |  | > 50 µM | COc1ccc(C(Oc2ccc(C(C)=O)cc2)c2ccccn2)cc1 (centres unmarked) [Compound 27, 1-(4-((4-methoxyphenyl)(pyridin-2-yl)methoxy)phenyl)ethanone] |  |
|  | > 50 µM |  | > 50 µM | COc1ccc(C(Oc2ccc(C(C)(C)C)cc2)c2ccccn2)cc1 (centres unmarked) [Compound 20, 2-((4-(tert-butyl)phenoxy)(4-methoxyphenyl)methyl)pyridine] |  |
|  | > 50 µM |  | > 50 µM | COc1ccc(OC(c2ccc(OC)cc2)c2ccccn2)cc1 (centres unmarked) [Compound 19, 2-((4-methoxyphenoxy)(4-methoxyphenyl)methyl)pyridine] |  |
| 28.5 ± 1.82 µM | 42.7 ± 2.24 µM |  | < 30 µM | COc1ccc(C(=Cc2ccc(Cl)cc2)c2ccccn2)cc1 [Compound 14a, 2-(2-(4-chlorophenyl)-1-(4-methoxyphenyl)vinyl)pyridine] | viability at 50 µM (human CRC HT-29 cells [1]; Homo sapiens, 48 h): < 50%; viability at 50 µM (human CRC HCT116 cells; [3]): < 50% |
|  | > 50 µM |  | > 50 µM | COc1ccc(C(=Cc2ccc(O)cc2)c2ccccn2)cc1 [Compound 11b, 4-(2-(4-methoxyphenyl)-2-(pyridin-2-yl)vinyl)phenol] |  |
|  | > 50 µM |  | 35 ± 1.99 µM | COc1ccc(C(=Cc2ccc(C)cc2)c2ccccn2)cc1 [Compound 7a, 2-(1-(4-methoxyphenyl)-2-(p-tolyl)vinyl)pyridine] | viability at 50 µM (human CRC HT-29 cells [1]; Homo sapiens, 48 h): < 50% |
| > 50 µM |  | > 50 µM |  | COc1ccc(C(=Cc2ccc(Cl)cc2)c2ccccn2)cc1 [Compound 14b, 2-(2-(4-chlorophenyl)-1-(4-methoxyphenyl)vinyl)pyridine] |  |
| 36.2 ± 4.56 µM |  | > 50 µM |  | COc1ccc(C(=Cc2ccc(C)cc2)c2ccccn2)cc1 [Compound 7b, 2-(1-(4-methoxyphenyl)-2-(p-tolyl)vinyl)pyridine] | Cell viability (%) HT-29 (human CRC HT-29 cells [1]; 48 h): < 50% |
|  | > 50 µM |  | > 50 µM | COc1ccc(C(Oc2ccccc2)c2ccccn2)cc1 (centres unmarked) [Compound 17, 2-((4-methoxyphenyl)(phenoxy)methyl)pyridine] |  |
|  | > 50 µM |  | > 50 µM | COc1ccc(C(Oc2ccc(C(F)(F)F)cc2)c2ccccn2)cc1 (centres unmarked) [Compound 24, 2-((4-methoxyphenyl)(4-(trifluoromethyl)phenoxy)methyl)pyridine] |  |
|  | > 50 µM |  | > 50 µM | COc1ccc(C(Oc2ccc(C)cc2)c2ccccn2)cc1 (centres unmarked) [Compound 18, 2-((4-methoxyphenyl)(p-tolyloxy)methyl)pyridine] |  |
| > 50 µM |  | > 50 µM |  | COc1ccc(C(=Cc2ccc(F)cc2)c2ccccn2)cc1 [Compound 15b, 2-(2-(4-fluorophenyl)-1-(4-methoxyphenyl)vinyl)pyridine] |  |
